Measured values as given in ChEMBL document CHEMBL3745606, “Dissection of N,N-diethyl-N'-phenylpiperazines as α7 nicotinic receptor silent agonists” (Bioorg Med Chem, 2016).
The source made the active and inactive calls. The calls are words filed in the database; no cut-off is given here.

Columns and labels:
[1] = target: T1, Neuronal acetylcholine receptor; alpha3/beta4 (Homo sapiens) (UniProt P30926+P32297); test: Partial agonist activity at human alpha3beta4 nAChR expressed in xenopus oocytes assessed as induction of PAM-sensitive desensitization at 30 uM by two-electrode voltage clamp electrophysiology relative to acetylcholine; assay type: cell-based
[2] = target: Neuronal acetylcholine receptor subunit alpha-7 (Homo sapiens) (UniProt P36544); test: Agonist activity at human alpha7 nAChR expressed in xenopus oocytes assessed as induction of PAM-sensitive desensitization at 30 uM by two-electrode voltage clamp electrophysiology relative to acetylcholine; assay type: cell-based
Chain of Neuronal acetylcholine receptor subunit alpha-7 (Homo sapiens) (P36544 whole entry): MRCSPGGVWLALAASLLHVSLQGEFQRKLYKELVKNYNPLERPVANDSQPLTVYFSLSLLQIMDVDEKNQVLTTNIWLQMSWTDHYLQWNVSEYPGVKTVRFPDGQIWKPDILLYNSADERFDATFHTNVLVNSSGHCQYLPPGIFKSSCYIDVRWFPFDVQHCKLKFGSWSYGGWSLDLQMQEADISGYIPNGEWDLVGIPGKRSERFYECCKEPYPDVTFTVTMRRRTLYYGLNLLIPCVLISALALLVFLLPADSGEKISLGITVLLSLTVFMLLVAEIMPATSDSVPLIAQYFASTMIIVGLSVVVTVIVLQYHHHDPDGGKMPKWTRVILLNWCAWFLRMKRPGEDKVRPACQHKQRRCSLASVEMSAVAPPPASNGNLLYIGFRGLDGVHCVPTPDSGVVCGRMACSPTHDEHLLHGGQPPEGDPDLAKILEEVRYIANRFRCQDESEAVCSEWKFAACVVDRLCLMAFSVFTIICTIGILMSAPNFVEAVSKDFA

[3] = target: Neuronal acetylcholine receptor subunit alpha-7 (Homo sapiens) (UniProt P36544); test: Agonist activity at human alpha7 nAChR expressed in xenopus oocytes assessed as potentiation of PNU-120596-induced PAM-sensitive desensitization at 30 uM by two-electrode voltage clamp electrophysiology relative to acetylcholine; assay type: cell-based
[4] = target: Neuronal acetylcholine receptor subunit alpha-7 (Homo sapiens) (UniProt P36544); test: Partial agonist activity at human alpha7 nAChR expressed in xenopus oocytes assessed as potentiation of PNU-120596-induced PAM-sensitive desensitization at 30 uM by two-electrode voltage clamp electrophysiology relative to acetylcholine; assay type: cell-based
[5] = target: Neuronal acetylcholine receptor subunit alpha-7 (Homo sapiens) (UniProt P36544); test: Partial agonist activity at human alpha7 nAChR expressed in xenopus oocytes assessed as induction of PAM-sensitive desensitization at 30 uM by two-electrode voltage clamp electrophysiology relative to acetylcholine; assay type: cell-based
[6] = target: Neuronal acetylcholine receptor subunit alpha-7 (Homo sapiens) (UniProt P36544); test: Partial agonist activity at human alpha7 nAChR expressed in xenopus oocytes assessed as induction of PAM-sensitive desensitization by measuring ratio of peak current to net charge at 30 uM by two-electrode voltage clamp electrophysiology relative to acetylcholine; assay type: cell-based
[7] = target: T2, Neuronal acetylcholine receptor; alpha4/beta2 (Homo sapiens) (UniProt P17787+P43681); test: Partial agonist activity at alpha4beta2 nAChR (unknown origin) at 100 uM; assay type: protein-complex assay
[8] = target: T2, Neuronal acetylcholine receptor; alpha4/beta2 (Homo sapiens); test: Antagonist activity at alpha4beta2 nAChR (unknown origin) at 100 uM; assay type: protein-complex assay
[9] = target: T1, Neuronal acetylcholine receptor; alpha3/beta4 (Homo sapiens); test: Antagonist activity at human alpha3beta4 nAChR expressed in xenopus oocytes at 100 uM by two-electrode voltage clamp electrophysiology; assay type: cell-based

SMILES | Activity [1] | fold change (FC) [2] | Activity [3] [%] | fold change (FC) [3] | Activity [4] [%] | fold change (FC) [4] | fold change (FC) [5] | Ratio [6] | Activity [7] | Activity [8] | Activity [9]
CCN1CCN(c2ccc(F)cc2)CC1 | inactive | 0 | < 10 | 0 |  |  |  |  |  |  | 
CC[N+]1(CC)CCN(c2ccc3ccccc3c2)CC1 |  |  |  |  | < 10 | 15.9 | 0.143 | 0.71 |  |  | 
CCN1CCN(c2cccc(Br)c2)CC1 | inactive | 0 | < 10 | 6.9 |  |  |  |  |  |  | 
CC[N+]1(CC)CCN(c2cccc(Br)c2)CC1 | inactive | 0.04 | < 10 | 10 |  |  |  |  | inactive | inactive | 
CC[N+]1(CC)CCC(=Cc2ccccc2)CC1 | inactive | 0.071 | < 10 | 9.9 |  |  |  |  |  |  | 
CC[N+]1(CC)CCN(c2ccc(Br)cc2)CC1 |  | 0.27 | < 10 | 12.3 |  |  |  |  |  |  | 
CC[N+]1(CC)CCC(Nc2ccccc2)CC1 | inactive | 0.002 | < 10 | 5.6 |  |  |  |  |  |  | 
CC[N+]1(CC)CCN(c2cccc(C#N)c2)CC1 | inactive | 0.022 | < 10 | 1.5 |  |  |  |  |  |  | 
CC[N+]1(CC)CCN(c2ccc(C#N)cc2)CC1 |  |  |  |  | < 10 | 68 | 0.234 | 0.43 |  |  | 
CC[N+]1(CC)CCN(c2cccc(C)c2)CC1 | inactive | 0.001 | < 10 | 0.2 |  |  |  |  |  |  | 
CC[N+]1(CC)CCN(c2ccccc2)CC1 |  | 0.002 | < 10 | 1.3 |  |  |  |  |  |  | 
CC[N+]1(CC)CCN(c2cccc(C(N)=O)c2)CC1 | inactive | 0.056 | < 10 | 50.7 |  |  |  |  |  |  | 
CC[N+]1(CC)CCN(c2cccc(Cl)c2)CC1 | inactive | 0.02 | < 10 | 4.2 |  |  |  |  |  |  | 
CC[N+]1(CC)CCN(c2cccc(OC)c2)CC1 | inactive | 0.011 | < 10 | 0.6 |  |  |  |  |  |  | Active
CCN1CCN(c2cccc(Cl)c2)CC1 | inactive | 0.009 | < 10 | 0.1 |  |  |  |  |  |  | 
CC[N+]1(CC)CCN(c2ccccc2C)CC1 |  |  |  |  | < 10 | 16.4 | 0.319 | 0.46 |  |  | 
CC[N+]1(CC)CCN(c2cccc(F)c2)CC1 | inactive | 0.061 | < 10 | 0.2 |  |  |  |  |  |  | 
CC[N+]1(CC)CCN(c2ccc(OC)cc2OC)CC1 |  | 0.014 | < 10 | 1.1 |  |  |  |  |  |  | 
CC[N+]1(CC)CCN(c2ccccc2Cl)CC1 |  |  |  |  | < 10 | 36.6 | 0.367 | 0.63 |  |  | 
CC[N+]1(CC)CCN(c2ccc(F)cc2)CC1 | inactive | 0.01 | < 10 | 22.9 |  |  |  |  |  |  | 
CC[N+]1(CC)CCN(c2ccc(Cl)cc2)CC1 |  |  |  |  | < 10 | 18.3 | 0.234 | 0.71 |  |  | 
CC[N+]1(CC)CCN(c2cccc(C(F)(F)F)c2)CC1 | inactive | 0 | < 10 | 3.1 |  |  |  |  |  |  | 
CC[N+]1(CC)CCN(c2cccc(O)c2)CC1 |  |  |  |  | < 10 | 31.4 | 0.283 | 0.67 |  |  | 
CCN1CCN(c2ccc(C(F)(F)F)cc2)CC1 | inactive | 0 | < 10 | 1.4 |  |  |  |  |  |  | 
CC[N+]1(CC)CCN(c2ccc(C)cc2)CC1 | inactive | 0.011 | < 10 | 3.6 |  |  |  |  |  |  | 
CC[N+]1(CC)CCN(c2ccc(OC)cc2)CC1 | inactive | 0.063 | < 10 | 11.6 |  |  |  |  |  |  | 
CC[N+]1(CC)CCN(c2ccc(C(N)=O)cc2)CC1 | inactive | 0.065 | < 10 | 43.9 |  |  |  |  |  |  | 
CC[N+]1(CC)CCN(c2ccc(C(F)(F)F)cc2)CC1 | inactive | 0.032 | < 10 | 61.8 |  |  |  |  | inactive | inactive | 
